# Data from US4308273A, “1,6-Naphthyridine derivatives, and antidinic and cerebral circulation improver containing such derivatives” (Nippon Kayaku Kabushiki Kaisha, priority 1978, dated 1981).
# Read-outs that look alike come from different tables or passages of the source.
# What was measured:
# [1] = Inhibition of spontaneous nystagmus produced by unilateral destruction of the labyrinth (anti-vertigo action); format: in vivo; conditions: cats; for inhibition at 12 mg/kg / inhibition at 6 mg/kg: Felis catus, iv, read-out: Effect of compounds on the nystagmus expressed as inhibitory percentage
# Description: (1) It is well known that vertigo resulting from the disturbance of the peripheral labyrinth is accompanied by nystagmus. So, we acutely produced the spontaneous nystagmus by unilateral destruction of the labyrinth in cats and used it as an experimental model of vertigo. a pair of Ag--AgCl cup electrodes was placed laterally to both orbits and an indifferent electrode on the forehead. The nystagmus was recorded through an amplifier. The inhibitory effect of the compounds on the nystagmus was expressed by [formula] where A is the frequency of the nystagmus in ten seconds before administration of the compounds and B is the frequency of the nystagmus at the maximum inhibitory point after administration. The duration of the effect was also measured. Compounds dissolved in saline were injected into the femoral vein. Betahistine and diphenidol were used as standard drugs.
# A: Doses of compounds injected intraveneously.
# B: Effect of compounds on the nystagmus expressed as inhibitory
# C: Duration of the effect of compounds
# [2] = Acute toxicity (LD50) by intraperitoneal injection; conditions: mouse, in vivo, ip
# Description: LD50 values of the compounds by intraperitoneal injection in mice were determined.
# [3] = Effects of intravenous injection on mean arterial pressure, heart rate and vertebral arterial flow in anesthetized dogs; conditions: for change in vivo at 1 mg/kg: Canis lupus familiaris, iv, read-out: Percent increase in vertebral arterial flow when injected intravenously; for Changes in heart rate when injected intravenously / Changes in systemic blood pressure when injected intravenously: anesthetized dogs, 1 mg/kg intravenously
# Description: (§1) Pressure in the carotid artery was measured by a pressure transducer and mean arterial pressure was obtained by electrical integration. Heart rate was obtained by a cardiotachometer, triggered by a signal from the pressure pulse. The vertebral arterial flow was measured by fitting an electromagnetic flow transducer. The action on systemic mean arterial pressure, heart rate and vertebral arterial flow were represented by Δ mmHg, Δ beats/min and percent increase.
# [4] = Cerebral vasodilating action: vertebral arterial flow, intra-arterial injection; format: in vivo; conditions: Canis lupus familiaris; dogs, 1 mg intraarterially; read-out: Percent increase in vertebral arterial flow when injected intraarterially
# Description: A: Percent increase in vertebral arterial flow when injected
# intraarterially (1 mg) to dogs.
# (1) For the experimental evaluation of cerebral vasodilating action, the canine vertebral arterial preparation was used. The carotid arterial blood was led to the vertebral artery by a short extracorporeal loop. The vertebral arterial flow was measured by an electromagnetic flow transducer inserted in the circuit. The action of the compounds on the vertebral arterial flow was expressed by percent increase when 1 mg of each compound was injected intra-arterially.
# [5] = Effect on the hexobarbital-induced sleeping time; conditions: male mice, 50 mg/kg subcutaneously, 15 min prior to sodium hexobarbital i.p.
# Description: Groups consisted of 10 male-mice were administered the compounds or saline subcutaneously 15 min. prior to an intraperitoneal injection of sodium hexobarbital. Sleeping time for each animal in a group was measured. The averaged value of sleeping time in each group was calculated. The action of the sleeping time was expressed by the percentage of the sleeping time in the compound-treated groups to that in the saline-treated group.
# D: Sleeping time of the compound (50 mg/kg, subcutaneously)treated groups
# expressd as percentage to that of the control group.
# [6] = dog, in vivo, iv, 1 mg/kg
# Description: as §1
# [7] = 12 mg/kg injected intravenously
# [8] = male mice, intraperitoneal injection (Table 3)
# [9] = mice, intraperitoneal injection (Table 4)
smiles,measurement,setting,value
"CCCCCN1CCc2ncccc2C1 [Compound 6, 5,6,7,8-tetrahydro-6-n-amyl-1,6-naphthyridine]",inhibition at 12 mg/kg,[1]; [7],86%
same,Duration of the effect of compounds (nystagmus),[1]; [7],10 min
same,LD50,[2]; [8],165 mg/kg
CC(C)CCN1CCc2ncccc2C1 [Compound 7],inhibition at 12 mg/kg,[1]; [7],85%
same,Duration of the effect of compounds (nystagmus),[1]; [7],6 min
same,LD50,[2]; [8],219 mg/kg
CCCCCCN1CCc2ncccc2C1 [Compound 8],change in vivo at 1 mg/kg,[3],20.1%
same,Changes in heart rate when injected intravenously,[3],+8 Δ beats/min
same,Changes in systemic blood pressure when injected intravenously,[3],-18.5 Δ mmHg
same,inhibition at 12 mg/kg,[1]; [7],88%
same,Duration of the effect of compounds (nystagmus),[1]; [7],10 min
same,LD50,[2]; [8],194 mg/kg
same,change in vivo at 1 mg,[4],67%
CCCCCCCN1CCc2ncccc2C1 [Compound 9],change in vivo at 1 mg/kg,[3],15.5%
same,Changes in heart rate when injected intravenously,[3],+8 Δ beats/min
same,Changes in systemic blood pressure when injected intravenously,[3],-20.0 Δ mmHg
same,inhibition at 12 mg/kg,[1]; [7],79%
same,Duration of the effect of compounds (nystagmus),[1]; [7],10 min
same,LD50,[2]; [8],208 mg/kg
same,change in vivo at 1 mg,[4],78%
CCCCCCCCCCN1CCc2ncccc2C1 [Compound 11],change in vivo at 1 mg/kg,[3],25%
same,Changes in heart rate when injected intravenously,[3],+8 Δ beats/min
same,Changes in systemic blood pressure when injected intravenously,[3],-5.0 Δ mmHg
same,LD50,[2]; [9],156 mg/kg
same,change in vivo at 1 mg,[4],99%
"C=CCN1CCc2ncccc2C1 [Compound 12, 5,6,7,8-tetrahydro-6-allyl-1,6-naphtyridine]",Sleeping time of the compound treated groups expressed as percentage to that of the control group,[5],132.5%
same,inhibition at 6 mg/kg,[1]; 6 mg/kg injected intravenously,90%
same,inhibition at 12 mg/kg,[1]; [7],98%
same,Duration of the effect of compounds (nystagmus),[1]; 6 mg/kg injected intravenously,40 min
same,Duration of the effect of compounds (nystagmus),[1]; [7],50 min
same,LD50,[2]; [8],208 mg/kg
"C=CCCN1CCc2ncccc2C1 [Compound 14, 5,6,7,8-tetrahydro-6-(3-butenyl)-1,6-naphthyridine]",inhibition at 12 mg/kg,[1]; [7],77%
same,Duration of the effect of compounds (nystagmus),[1]; [7],28 min
same,LD50,[2]; [8],239 mg/kg
CCCCCC=CCN1CCc2ncccc2C1 [Compound 19],inhibition at 12 mg/kg,[1]; [7],65%
same,Duration of the effect of compounds (nystagmus),[1]; [7],25 min
same,LD50,[2]; [8],304 mg/kg
CC(C)=CCC/C(C)=C/CN1CCc2ncccc2C1 [Compound 20],change in vivo at 1 mg/kg,[3],20%
same,Changes in heart rate when injected intravenously,[3],+12 Δ beats/min
same,Changes in systemic blood pressure when injected intravenously,[3],-11.7 Δ mmHg
same,LD50,[2]; [9],292 mg/kg
same,change in vivo at 1 mg,[4],69%
c1cnc2c(c1)CN(CC1CCC1)CC2 [Compound 23],inhibition at 12 mg/kg,[1]; [7],83%
same,Duration of the effect of compounds (nystagmus),[1]; [7],8 min
same,LD50,[2]; [8],214 mg/kg
c1ccc(OCCCN2CCc3ncccc3C2)cc1 [Compound 27],inhibition at 12 mg/kg,[1]; [7],90%
same,Duration of the effect of compounds (nystagmus),[1]; [7],30 min
same,LD50,[2]; [8],208 mg/kg
c1ccc(CN2CCc3ncccc3C2)cc1 [Compound 31],change in vivo at 1 mg/kg,[3],36%
same,Changes in heart rate when injected intravenously,[3],+16 Δ beats/min
same,Changes in systemic blood pressure when injected intravenously,[3],-12.0 Δ mmHg
same,inhibition at 12 mg/kg,[1]; [7],57%
same,Duration of the effect of compounds (nystagmus),[1]; [7],9 min
same,LD50,[2]; [8],262 mg/kg
same,change in vivo at 1 mg,[4],90%
Clc1ccc(CN2CCc3ncccc3C2)cc1 [Compound 33],change in vivo at 1 mg/kg,[3],30%
same,Changes in heart rate when injected intravenously,[3],+8 Δ beats/min
same,Changes in systemic blood pressure when injected intravenously,[3],-23.5 Δ mmHg
same,change in vivo at 1 mg,[4],75%
Cc1ccc(CN2CCc3ncccc3C2)cc1 [Compound 34],change in vivo at 1 mg/kg,[3],18%
same,Changes in heart rate when injected intravenously,[3],+8 Δ beats/min
same,Changes in systemic blood pressure when injected intravenously,[3],-10.0 Δ mmHg
same,LD50,[2]; [9],518 mg/kg
same,change in vivo at 1 mg,[4],93%
CCc1ccc(CN2CCc3ncccc3C2)cc1 [Compound 35],change in vivo at 1 mg/kg,[3],27.3%
same,Changes in heart rate when injected intravenously,[3],+8 Δ beats/min
same,Changes in systemic blood pressure when injected intravenously,[3],-21.7 Δ mmHg
same,change in vivo at 1 mg,[4],56%
CC(C)c1cccc(CN2CCc3ncccc3C2)c1 [Compound 36],change in vivo at 1 mg/kg,[3],22%
same,Changes in heart rate when injected intravenously,[3],+8 Δ beats/min
same,Changes in systemic blood pressure when injected intravenously,[3],-20.0 Δ mmHg
same,LD50,[2]; [9],368 mg/kg
same,change in vivo at 1 mg,[4],100%
CC(C)c1ccc(CN2CCc3ncccc3C2)cc1 [Compound 37],change in vivo at 1 mg/kg,[3],33.3%
same,Changes in systemic blood pressure when injected intravenously,[3],-13.3 Δ mmHg
same,LD50,[2]; [9],300 mg/kg
same,change in vivo at 1 mg,[4],110%
CC(C)(C)c1ccc(CN2CCc3ncccc3C2)cc1 [Compound 38],change in vivo at 1 mg/kg,[3],28.6%
same,Changes in systemic blood pressure when injected intravenously,[3],-11.7 Δ mmHg
same,change in vivo at 1 mg,[4],78%
Clc1ccc(CN2CCc3ncccc3C2)cc1Cl [Compound 44],change in vivo at 1 mg/kg,[3],30.8%
same,Changes in heart rate when injected intravenously,[3],+32 Δ beats/min
same,Changes in systemic blood pressure when injected intravenously,[3],-16.7 Δ mmHg
same,LD50,[2]; [9],270 mg/kg
same,change in vivo at 1 mg,[4],107%
"COc1ccc(CN2CCc3ncccc3C2)cc1OC [Compound 46, 5,6,7,8-tetrahydro-6-(3,4-dimethoxybenzyl)-1,6-naphthyridine]",change in vivo at 1 mg/kg,[3],50%
same,Changes in heart rate when injected intravenously,[3],+32 Δ beats/min
same,Changes in systemic blood pressure when injected intravenously,[3],-27.2 Δ mmHg
same,LD50,[2]; [9],262 mg/kg
same,change in vivo at 1 mg,[4],99%
CCCOc1cc(CN2CCc3ncccc3C2)ccc1OC [Compound 49],change in vivo at 1 mg/kg,[3],21.2%
same,LD50,[2]; [9],174 mg/kg
same,Changes in heart rate when injected intravenously,[6],+24 Δ beats/min
same,Changes in systemic blood pressure when injected intravenously,[6],-11.6 Δ mmHg
same,change in vivo at 1 mg,[4],93%
CCCOc1ccc(CN2CCc3ncccc3C2)cc1OCCC [Compound 50],change in vivo at 1 mg/kg,[3],30.6%
same,LD50,[2]; [9],200 mg/kg
same,Changes in heart rate when injected intravenously,[6],+16 Δ beats/min
same,Changes in systemic blood pressure when injected intravenously,[6],-10.0 Δ mmHg
same,change in vivo at 1 mg,[4],79%
CCCCOc1ccc(CN2CCc3ncccc3C2)cc1OCCCC [Compound 51],change in vivo at 1 mg/kg,[3],16.7%
same,Changes in heart rate when injected intravenously,[6],0 Δ beats/min
same,Changes in systemic blood pressure when injected intravenously,[6],0 Δ mmHg
same,change in vivo at 1 mg,[4],77%
c1ccc(CCN2CCc3ncccc3C2)cc1 [Compound 55],inhibition at 12 mg/kg,[1]; [7],92%
same,Duration of the effect of compounds (nystagmus),[1]; [7],5 min
same,LD50,[2]; [8],219 mg/kg
c1ccc(CCCN2CCc3ncccc3C2)cc1 [Compound 57],inhibition at 12 mg/kg,[1]; [7],97%
same,Duration of the effect of compounds (nystagmus),[1]; [7],10 min
same,LD50,[2]; [8],159 mg/kg
"C(=C\c1ccccc1)/CN1CCc2ncccc2C1 [Compound 58, 5,6,7,8-tetrahydro-6-cinnamyl-1,6-naphthyridine]",change in vivo at 1 mg/kg,[3],22.2%
same,Changes in heart rate when injected intravenously,[3],+40 Δ beats/min
same,Changes in systemic blood pressure when injected intravenously,[3],-13.3 Δ mmHg
same,inhibition at 12 mg/kg,[1]; [7],53%
same,Duration of the effect of compounds (nystagmus),[1]; [7],35 min
same,LD50,[2]; [8],263 mg/kg
same,change in vivo at 1 mg,[4],81%
Clc1ccccc1C=CCN1CCc2ncccc2C1 [Compound 61],change in vivo at 1 mg/kg,[3],29.2%
same,Changes in heart rate when injected intravenously,[3],+24 Δ beats/min
same,Changes in systemic blood pressure when injected intravenously,[3],-20.0 Δ mmHg
same,change in vivo at 1 mg,[4],84%
O=[N+]([O-])c1ccccc1C=CCN1CCc2ncccc2C1 [Compound 67],change in vivo at 1 mg/kg,[3],40%
same,Changes in heart rate when injected intravenously,[3],+16 Δ beats/min
same,Changes in systemic blood pressure when injected intravenously,[3],-31.7 Δ mmHg
same,change in vivo at 1 mg,[4],75%
Clc1ccc(C=CCN2CCc3ncccc3C2)c(Cl)c1 [Compound 70],change in vivo at 1 mg/kg,[3],60%
same,Changes in heart rate when injected intravenously,[3],+16 Δ beats/min
same,Changes in systemic blood pressure when injected intravenously,[3],-11.7 Δ mmHg
same,LD50,[2]; [9],220 mg/kg
same,change in vivo at 1 mg,[4],158%
Clc1ccc(C=CCN2CCc3ncccc3C2)cc1Cl [Compound 71],change in vivo at 1 mg/kg,[3],44.4%
same,Changes in heart rate when injected intravenously,[3],+40 Δ beats/min
same,Changes in systemic blood pressure when injected intravenously,[3],-38.3 Δ mmHg
same,LD50,[2]; [9],199 mg/kg
same,change in vivo at 1 mg,[4],116%
Cc1ccc(C)c(C=CCN2CCc3ncccc3C2)c1 [Compound 72],change in vivo at 1 mg/kg,[3],40%
same,Changes in heart rate when injected intravenously,[3],+48 Δ beats/min
same,Changes in systemic blood pressure when injected intravenously,[3],-38.3 Δ mmHg
same,LD50,[2]; [9],242 mg/kg
same,change in vivo at 1 mg,[4],92%
"CNCCc1ccccn1 [betahistine, reference compound]",change in vivo at 1 mg/kg,[3],14.3%
same,inhibition at 6 mg/kg,[1]; 6 mg/kg injected intravenously,55%
same,inhibition at 12 mg/kg,[1]; [7],80%
same,Duration of the effect of compounds (nystagmus),[1]; 6 mg/kg injected intravenously,5 min
same,Duration of the effect of compounds (nystagmus),[1]; [7],8 min
same,LD50,[2]; [8],864 mg/kg
same,Changes in heart rate when injected intravenously,[6],+52 Δ beats/min
same,Changes in systemic blood pressure when injected intravenously,[6],-100.0 Δ mmHg
same,change in vivo at 1 mg,[4],90%
